These results are taken from publication PMC3117668 (ACS medicinal chemistry letters, 2011).

The subject of one assay is H37Rv-TB. Description: MIC re-screen in the presence of 4% BSA and 10% FBS. The format is cell-based, Mycobacterium tuberculosis. The following applies: ATP and MABA readouts.
In a further assay the test system is H37Rv TB. Description: Whole cell MIC against H37Rv. The format is cell-based. The following applies: Mycobacterium tuberculosis.
A further assay deals with M. bovis BCG. Description: microbe, parasite or virus in culture. The format is cell-based. Conditions: Mycobacterium tuberculosis variant bovis BCG, read-out: MIC90 M. bovis BCG.

Each structure is given as a SMILES string. Values after ≈ are worked out from the molar mass of the structure shown. Some results are limits rather than exact numbers.

For the molecule `Cc1ccn2c(C(=O)NCc3ccccc3)c(C)nc2c1` [Compound 1], the MIC shift result with H37Rv-TB is “less than two fold”.

In turn, `Cc1ccn2c(C(=O)NCc3ccc(Cl)c(Cl)c3)c(C)nc2c1` [Compound 7] came in with a minimal inhibitory concentration (MIC) against H37Rv TB of 9 to 14 µM (≈ 3.13 to 4.88 µg/mL).

In the case of `Cc1ccn2c(C(=O)NCc3cccc(F)c3)c(C)nc2c1` [Compound 8], in the assay with H37Rv TB, the MIC was roughly 0.3 µM (≈ 0.0892 µg/mL).

For `COc1cccc(CNC(=O)c2c(C)nc3ncc(C)cn23)c1` [Compound 10], the MIC shift entry with H37Rv-TB is “less than two fold”.

In the case of `CO[C@H]1/C=C/O[C@@]2(C)Oc3c(C)c(O)c4c(O)c(c(/C=N/N5CCN(C)CC5)c(O)c4c3C2=O)NC(=O)/C(C)=C\C=C\[C@H](C)[C@H](O)[C@@H](C)[C@@H](O)[C@@H](C)[C@H](OC(C)=O)[C@@H]1C` [RMP, Rifampicin], the MIC90 with M. bovis BCG is less than 0.78 µM.

`CCOC(=O)c1c(C)nc2cc(C)ccn12` [ethyl 2,7-dimethylimidazo[1,2-a]pyridine-3-carboxylate] showed an MIC with H37Rv TB of roughly 65 µM (≈ 14.2 µg/mL).
